Measured values from patent publication US7829087B2, “Methods of treating cognitive impairment” (Elan Pharmaceuticals, Inc., priority 2001, dated 2010).
“And” between values parts separate entries of the source, which are not always exact repeats. Equal entries are not always repeated.

What was measured:
LTP in the dentate gyrus = assay: Aβ-mediated inhibition of LTP in the dentate gyrus in vitro (hippocampal slices, field EPSPs); type: cell-based, rat; conditions: for Suppression of Aβ inhibition of LTP in vitro (figure legends): dentate gyrus in vitro
Method: All experiments were carried out on transverse slices of the rat hippocampus (males, age 3-4 weeks, weight 40-80 g) or mice (males, age 3-4 months). The brains were rapidly removed after decapitation and placed in cold oxygenated (95% O2/5% CO2) media. Slices were cut at a thickness of 350 μm using an Intracell Plus 1000 and placed in a storage container containing oxygenated medium at room temperature (20-22° C.) for 1 hr. The slices were then transferred to a recording chamber for submerged slices and continuously superfused at a rate of 5-6 ml/min at 30-32° C. The control media contained (in mM): NaCl, 120; KCl 2.5, NaH2PO4, 1.25; NaHCO3 26; MgSO4, 2.0; CaCl2, 2.0; D-glucose 10. All solutions contained 100 μM picrotoxin (Sigma) to block GABAA-mediated activity.
Standard electrophysiological techniques were used to record field potentials. Presynaptic stimulation was applied to the medial perforant pathway of the dentate gyrus using a bipolar insulated tungsten wire electrode, and field excitatory postsynaptic potentials (EPSPs) were recorded at a control test frequency of 0.033 Hz from the middle one-third of the molecular layer of the dentate gyrus with a glass microelectrode. The inner blade of the dentate gyrus was used in all studies. In each experiment, an input-output curve (afferent stimulus intensity versus EPSP amplitude) was plotted at the test frequency. For all experiments, the amplitude of the test EPSP was adjusted to one-third of maximum (˜1.2 mV). LTP was evoked by 8 trains of high frequency stimulation (HFS), each of 8 stimuli at 200 Hz, inter-train interval 2s, with the stimulation voltage increased during the HFS so as to evoke an initial EPSP of the train of double the normal test EPSP amplitude. Control (vehicle alone) and experimental levels of LTP were measured on slices prepared from the same hippocampus. Recordings were analysed using p-CLAMP (Axon Instruments, CA, USA). The values reported herein were the means±S.E.M. for n slices. Two-tailed Student's t-test was used for statistical comparison.
Synthetic Aβ (1-42) was obtained from Bachem. For the in vitro experiments, synthetic Aβ1-42 was prepared as a stock solution of 50 μM in ammonium hydroxide (0.1%), stored at −20° C., and then added to physiological medium immediately prior to each experiment. For the in vivo experiments, synthetic Aβ(1-42) (Bachem) was re-suspended in ice-cold milliQ water or Teplow. An aliquot was removed and centrifuged at 100,000 g for 3 h, conditions known to pellet fibrils and protofibrils (Klyubin et al., 2004).
The following integrin-αv antibodies (all IgG1 isotype) were used in the studies: 18C7, 17E6 and 20A9 (all from Calbiochem). The control antibodies used were 7H10, an IgG2a mouse antibody against human ICAM-1 and 27/1, an IgG1 isotype. Other compounds used were echistatin (Source), SM256 (3-[1-[3-(N-imidazol-2-ylamino)propyl]indazol-5-ylcarbonylamino]-2(S)-(2,4,6-trimethylbenzenesulfonylamino)propionic acid trifluoroacetate) which was prepared by Elan Pharmaceuticals (recoded as ELN 151993) according to the methods of Van Maes et al, 1994, superfibernectin (Sigma) and phalloidin (Calbiochem). In the in vivo experiments, SM256 was prepared for i.p administration in a suspension of Tween 80 (Sigma) in saline (15% v/v).

LTP in the CA1 area = assay: Aβ-mediated inhibition of LTP in the CA1 in vivo; set-up: species or system rat
Human cortical neurons = assay: Amylin two component toxicity; type: cell-based; conditions: seed amylin 1 hour, then soluble amylin; toxicity after 1 day
Method: Seed or aggregated amylin (1 mM) from CPR, Inc. (641-80, lot NG-0213) was made by adding 200 μl water/mg powder and then aging the solution for three days at 37° C. Soluble amylin (5 mM) was prepared by adding 40 μl DMSO/mg powder and sonicating the mixture for 30 minutes in a water bath. Both stock solutions were aliquoted and frozen until ready for use. Soluble amylin stock was diluted to 20 μM in culture medium just prior to use and filtered through an Amicon 30 filter that had been pre-washed with water. Filtered material was then diluted to its appropriate concentration.
Human cortical neurons (at 125,000 cells/96 well) were treated for 1 hour with seed amylin at 5 μM, 100 μl/well. Cells were aspirated and soluble amylin was added back at 5 μM per 100 μl/well. For compound studies, 50 μl of 2× compound was added before adding the soluble amylin.

[1] = test system: Aβ meshwork in human cortical cultures (HCC); assay: Aβ meshwork formation on human cortical cultures (Aβ immunofluorescence); type: cell-based; conditions: for Inhibition of Aβ meshwork formation (in words): HCC
Method: (§1) Tissue culture plates were coated with polyethyleneimine (PEI) in 150 mM sodium borate, pH 8.5, and incubated overnight at room temperature. Prior to adding cells, the wells were washed with PBS and Minimal Essential Media (MEM with 10% FBS) was added until cells were ready for plating. Human fetal cerebral cortex (E13-E16) was rinsed with Hank's Balanced Salt Solution (HBSS). Tissue was triturated in 1 mg of DNAse in HBSS. This suspension was filtered through a 100 micron nylon cell strainer and spun at 250×g for 5 minutes. The cells were resuspended in trypsin and incubated at 37° C. for 20 minutes. Modified Minimal Essential Media (MMEM with 10% FBS and 1 mg of DNase) was added and the cells were resuspended; then collected again by centrifugation. Cells were resuspended in MMEM containing B27, and plated in washed PEI-coated plates at 125,000 cells/well in 96 well plates or at 2.5 million cells/well in 6 well plates. The human cortical cultures (HCC) were incubated for 3 weeks with biweekly medium exchanges prior to treatment.
(§2) Aβ was generated by adding double distilled water (ddH2O) to Aβ to make up a 1 mM stock. This was aged for 3 days at 37° C., aliquoted, and stored frozen at −20° C. Soluble Aβ was made by adding DMSO to Aβ to make a 7.5 mM stock, sonicating for 30 minutes, aliquoting, and freezing at −20° C. Neurotoxic Aβ was generated by adding ddH2O to Aβ, aliquoting, and freezing at −20° C.
HCC treated with Aβ for 72 hours were fixed with 4% paraformaldehyde, stained with 5 μg/ml anti-Aβ-3D6-biotin, and visualized with 10 μg/ml streptavidin-FITC (Jackson).

[2] = test system: human cortical cultures (HCC); assay: Aβ neurotoxicity in human cortical neurons (alamar blue); type: cell-based; conditions: for Maximal inhibition of toxicity (%): Aβ neurotoxicity in HCC, 3 days; for Inhibition of Aβ neurotoxicity (in words): HCC
Method: as §1, §2
HCC were pretreated with antibodies or ligands for 30 minutes in neuronal medium (MEM) supplemented with glutamine and penicillin/streptomycin (basal media). One micromolar Aβ in basal medium was added for 1 hour. The medium was removed and the HCC were treated with antibodies or ligands and 20 μM soluble Aβ in basal medium for 3 days. At three days, the toxicity was determined by incubating in 10% alamar blue in basal medium for two hours. Fluorescence levels were measured relative to control and Aβ treated wells in triplicate.

Compound: Cc1cc(C)c(S(=O)(=O)N[C@@H](CNC(=O)c2ccc3c(cnn3CCCNc3ncc[nH]3)c2)C(=O)O)c(C)c1.O=C(O)C(F)(F)F [SM256, 3-[1-[3-(N-imidazol-2-ylamino)propyl]indazol-5-ylcarbonylamino]-2(S)-(2,4,6-trimethylbenzenesulfonylamino)propionic acid trifluoroacetate]
- LTP in the presence of Aβ plus SM256 (LTP in the dentate gyrus; SM256 10 μl M plus Aβ, n=5): 129±5%
- LTP with SM256 alone (LTP in the dentate gyrus; SM256 10 μl M, no Aβ): 148±7%
- Suppression of Aβ inhibition of LTP in vitro (figure legends) (LTP in the dentate gyrus): suppresses inhibition of LTP by Aβ
- Suppression of soluble Aβ inhibition of LTP in vivo (figure legends) (LTP in the CA1 area; CA1 area in vivo): suppresses inhibition of LTP by soluble Aβ
- LTP after SM256 plus soluble Aβ (LTP in the CA1 area; SM256 40 mg in 1.2 ml vehicle i.p., Aβ 50 pmol i.c.v. 40 min later, 10 min before HFS): 133±5%
- Effect of SM256 alone on baseline synaptic transmission or control LTP (LTP in the CA1 area; SM256 40 mg in 1.2 ml vehicle, i.p.): no discernible effect on baseline synaptic transmission or control LTP

Compound: C=C1[C@@H](C)[C@H]2[C@H](Cc3ccccc3)NC(=O)[C@]23[C@H](OC(C)=O)/C=C/[C@@](C)(O)C(=O)[C@@H](C)C/C=C/[C@H]3[C@@H]1O [cytochalasin D]
- Protection against amylin two component toxicity (in words) (Human cortical neurons): amylin two component toxicity is further inhibited

Compound: Aβ: Synthetic Aβ (1-42) from Bachem, used to inhibit LTP
- LTP (EPSP, % baseline) in the presence of Aβ alone (LTP in the dentate gyrus; Aβ 500 nM, 1 h post-HFS, dentate gyrus slices): 105±3 % baseline and 105±6 % baseline and 103±3 % baseline
- LTP (% baseline) in the presence of soluble fibril-free Aβ (LTP in the CA1 area; Aβ 50 pmol in 5 μl i.c.v., 10 min prior to HFS, 3 h post-HFS, anaesthetized rats): 105±5%
- LTP after peripheral vehicle followed by central injection of Aβ (LTP in the CA1 area; vehicle i.p., Aβ 50 pmol i.c.v.): 103±10%

Compound: Fibronectin: αvβ1 integrin ligand, large multidomain glycoprotein
- Meshwork Inhibition ([1]; Aβ meshwork on HCC, Table 1): Yes
- Inhibition of Aβ meshwork formation (in words) [1]: capable of inhibiting Aβ meshwork formation and neurotoxicity
- Maximal inhibition of toxicity (%) [2]: 32%
- Inhibition of Aβ neurotoxicity (in words) [2]: capable of inhibiting Aβ meshwork formation and neurotoxicity

Compound: Laminin
- Inhibition of Aβ meshwork formation (in words) [1]: not capable of inhibiting Aβ meshwork or neurotoxicity
- Maximal inhibition of toxicity (%) [2]: 20%
- Inhibition of Aβ neurotoxicity (in words) [2]: not capable of inhibiting Aβ meshwork or neurotoxicity

Compound: echistatin (QCESGPCCRNCKFLKEGTICKRARGDDMDDYCNGKTCDCPRNPHKGPAT)
- Suppression of Aβ inhibition of LTP in vitro (figure legends) (LTP in the dentate gyrus): suppresses inhibition of LTP by Aβ
- LTP in the presence of Aβ plus echistatin (LTP in the dentate gyrus; echistatin 50 nM plus Aβ, n=5): 143±6%
- LTP with echistatin alone (LTP in the dentate gyrus; echistatin 50 nM, no Aβ): 158±5%
